Activity calls are given as the source filed them. The rule behind the calls is not given here.
Assays:
[1] = molecular target: T1, Aurora kinase A (Homo sapiens, UniProt O14965); experiment: Inhibition of AURKA (unknown origin) using FAM-labeled peptide substrate preincubated for 10 mins followed by substrate addition measured after 60 mins by caliper assay
T1 sequence (O14965 whole entry): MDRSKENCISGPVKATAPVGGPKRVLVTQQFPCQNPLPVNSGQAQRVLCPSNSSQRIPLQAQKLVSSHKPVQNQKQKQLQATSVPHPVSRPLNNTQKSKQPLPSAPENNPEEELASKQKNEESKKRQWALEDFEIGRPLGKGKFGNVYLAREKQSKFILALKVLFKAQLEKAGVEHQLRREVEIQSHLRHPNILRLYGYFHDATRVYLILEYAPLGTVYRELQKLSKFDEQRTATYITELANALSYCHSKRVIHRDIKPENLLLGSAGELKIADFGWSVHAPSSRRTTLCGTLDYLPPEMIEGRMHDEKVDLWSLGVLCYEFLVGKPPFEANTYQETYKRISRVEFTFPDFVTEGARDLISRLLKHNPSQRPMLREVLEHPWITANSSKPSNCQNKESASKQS

[2] = molecular target: Aurora kinase B (Homo sapiens, UniProt Q96GD4); experiment: Inhibition of AURKB (unknown origin) using FAM-labeled peptide substrate preincubated for 10 mins followed by substrate addition measured after 60 mins by caliper assay
Sequence of Aurora kinase B (Q96GD4 whole entry): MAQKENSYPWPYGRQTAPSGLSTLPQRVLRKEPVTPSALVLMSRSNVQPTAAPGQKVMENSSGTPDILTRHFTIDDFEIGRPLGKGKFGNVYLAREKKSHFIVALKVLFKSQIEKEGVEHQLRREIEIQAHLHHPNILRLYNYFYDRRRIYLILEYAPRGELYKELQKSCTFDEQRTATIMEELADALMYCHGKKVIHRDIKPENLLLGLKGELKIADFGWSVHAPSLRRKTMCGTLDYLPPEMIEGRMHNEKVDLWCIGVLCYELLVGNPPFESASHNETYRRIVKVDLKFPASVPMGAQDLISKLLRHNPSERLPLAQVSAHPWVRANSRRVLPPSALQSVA

[3] = tested on: U-937; experiment: Antiproliferative activity against human U937 cells after 48 hrs by CCK8 assay; type: functional, cell-based; conditions: U-937, 48 h
[4] = tested on: K562; experiment: Antiproliferative activity against human K562 cells after 48 hrs by CCK8 assay; type: functional, cell-based; conditions: K562, 48 h
[5] = tested on: HeLa; experiment: Antiproliferative activity against human HeLa cells after 48 hrs by CCK8 assay; type: functional, cell-based
[6] = tested on: MDA-MB-231; experiment: Antiproliferative activity against human MDA-MB-231 cells after 48 hrs by CCK8 assay; type: functional, cell-based; conditions: MDA-MB-231, 48 h
[7] = tested on: MCF7; experiment: Antiproliferative activity against human MCF7 cells after 48 hrs by CCK8 assay; type: functional, cell-based; conditions: MCF7, 48 h
[8] = tested on: HCT-116; experiment: Antiproliferative activity against human HCT116 cells after 48 hrs by CCK8 assay; type: functional, cell-based; conditions: HCT-116, 48 h
[9] = tested on: A-431; experiment: Antiproliferative activity against human A431 cells after 48 hrs by CCK8 assay; type: functional, cell-based; conditions: A-431, 48 h
[10] = tested on: NB-4; experiment: Antiproliferative activity against human NB4 cells after 48 hrs by CCK8 assay; type: functional, cell-based; conditions: NB-4, 48 h
[11] = tested on: HL-60; experiment: Antiproliferative activity against human HL60 cells after 48 hrs by CCK8 assay; type: functional, cell-based; conditions: HL-60, 48 h
[12] = tested on: U-937; experiment: Induction of apoptosis in human U937 cells assessed as live cells at 0.3 uM after 48 hrs by Annexin-V/propidium iodide staining based flow cytometry (reference value: 94.6%); type: functional
[13] = tested on: U-937; experiment: Induction of apoptosis in human U937 cells assessed as early apoptotic cells at 0.3 uM after 48 hrs by Annexin-V/propidium iodide staining based flow cytometry (reference value: 2.38%); type: functional
[14] = tested on: U-937; experiment: Induction of apoptosis in human U937 cells assessed as late apoptotic cells at 0.3 uM after 48 hrs by Annexin-V/propidium iodide staining based flow cytometry (reference value: 1.93%); type: functional
[15] = tested on: U-937; experiment: Induction of apoptosis in human U937 cells assessed as necrotic cells at 0.3 uM after 48 hrs by Annexin-V/propidium iodide staining based flow cytometry (reference value: 1.13%); type: functional
[16] = tested on: U-937; experiment: Induction of apoptosis in human U937 cells assessed as live cells at 0.6 uM after 48 hrs by Annexin-V/propidium iodide staining based flow cytometry (reference value: 94.6%); type: functional
[17] = tested on: U-937; experiment: Induction of apoptosis in human U937 cells assessed as early apoptotic cells at 0.6 uM after 48 hrs by Annexin-V/propidium iodide staining based flow cytometry (reference value: 2.38%); type: functional
[18] = tested on: U-937; experiment: Induction of apoptosis in human U937 cells assessed as late apoptotic cells at 0.6 uM after 48 hrs by Annexin-V/propidium iodide staining based flow cytometry (reference value: 1.93%); type: functional
[19] = tested on: U-937; experiment: Induction of apoptosis in human U937 cells assessed as necrotic cells at 0.6 uM after 48 hrs by Annexin-V/propidium iodide staining based flow cytometry (reference value: 1.13%); type: functional
[20] = tested on: U-937; experiment: Induction of apoptosis in human U937 cells assessed as live cells at 1.2 uM after 48 hrs by Annexin-V/propidium iodide staining based flow cytometry (reference value: 94.6%); type: functional
[21] = tested on: U-937; experiment: Induction of apoptosis in human U937 cells assessed as early apoptotic cells at 1.2 uM after 48 hrs by Annexin-V/propidium iodide staining based flow cytometry (reference value: 2.38%); type: functional
[22] = tested on: U-937; experiment: Induction of apoptosis in human U937 cells assessed as late apoptotic cells at 1.2 uM after 48 hrs by Annexin-V/propidium iodide staining based flow cytometry (reference value: 1.93%); type: functional
[23] = tested on: U-937; experiment: Induction of apoptosis in human U937 cells assessed as necrotic cells at 1.2 uM after 48 hrs by Annexin-V/propidium iodide staining based flow cytometry (reference value: 1.13%); type: functional
[24] = tested on: K562; experiment: Cell cycle arrest in human K562 cells assessed as accumulation at G2/M phase at 0.1 to 1 uM after 24 hrs by propidium iodide staining based flow cytometry relative to control; type: functional
[25] = tested on: NB-4; experiment: Cell cycle arrest in human NB4 cells assessed as accumulation at G2/M phase at 0.1 to 1 uM after 24 hrs by propidium iodide staining based flow cytometry relative to control; type: functional
[26] = tested on: U-937; experiment: Cell cycle arrest in human U937 cells assessed as accumulation at G2/M phase at 0.1 to 1 uM after 24 hrs by propidium iodide staining based flow cytometry relative to control; type: functional
[27] = tested on: K562; experiment: Cell cycle arrest in human K562 cells assessed as decrease in 2N DNA content at 0.1 to 1 uM after 24 hrs by propidium iodide staining based flow cytometry; type: functional
[28] = tested on: NB-4; experiment: Cell cycle arrest in human NB4 cells assessed as decrease in 2N DNA content at 0.1 to 1 uM after 24 hrs by propidium iodide staining based flow cytometry; type: functional
[29] = tested on: U-937; experiment: Cell cycle arrest in human U937 cells assessed as decrease in 2N DNA content at 0.1 to 1 uM after 24 hrs by propidium iodide staining based flow cytometry; type: functional
[30] = tested on: MDA-MB-231; experiment: Inhibition of alpha-tubulin in human MDA-MB-231 cells assessed as abolishment of regular location of protein at 0.5 uM after 48 hrs by DAPI staining based immunofluorescence assay; type: cell-based
[31] = tested on: MDA-MB-231; experiment: Induction of chromosome alignment defects in human MDA-MB-231 cells at 1 uM after 48 hrs by DAPI staining based immunofluorescence assay; type: functional, cell-based
[32] = tested on: MDA-MB-231; experiment: Induction of aberrant spindle formation with tripolar and tetrapolar occurrence in human MDA-MB-231 cells at 1 uM after 48 hrs by DAPI staining based immunofluorescence assay; type: functional, cell-based
[33] = tested on: U-937; experiment: Antitumor activity against human U937 cells xenografted in nude mouse assessed as tumor size at 50 mg/kg, ip administered once daily for 9 days (reference value: 1069.16 +/- 327.22 mm3); type: functional
[34] = tested on: U-937; experiment: Antitumor activity against human U937 cells xenografted in nude mouse assessed as tumor size at 100 mg/kg, ip administered once daily for 9 days (reference value: 1069.16 +/- 327.22 mm3); type: functional
[35] = tested on: U-937; experiment: Antitumor activity against human U937 cells xenografted in nude mouse assessed as tumor weight at 50 mg/kg, ip administered once daily for 9 days (reference value: 1.64 +/- 0.22 g); type: functional
[36] = tested on: U-937; experiment: Antitumor activity against human U937 cells xenografted in nude mouse assessed as tumor weight at 100 mg/kg, ip administered once daily for 9 days (reference value: 1.64 +/- 0.22 g); type: functional
[37] = tested on: Mus musculus; experiment: Toxicity in nude mouse xenografted with human U937 cells assessed as body weight change at 50 to 100 mg/kg, ip administered once daily for 9 days; type: organism-based; conditions: in vivo, 216 h
[38] = Stability of the compound up to 6 months at 40 +/- 2 degC and 75 +/- 5% relative humidity by HPLC analysis; type: physicochemical

`Cc1cc(Nc2cc(N3CCN(C)CC3)nc(Nc3ccc(Cl)c(F)c3)n2)n[nH]1` showed an IC50 [1] of 31 nM, an IC50 [2] of 101 nM and an IC50 [3] of 24.8 nM. For the same compound, the IC50 [4] was 218 nM, the IC50 [5] was 374 nM and the IC50 [6] was 155 nM. For the same compound, the IC50 [7] was 818 nM, the IC50 [8] was 252 nM and the IC50 [9] was 136 nM.

`COc1ccc(Nc2nc(Nc3cc(C)[nH]n3)cc(N3CCN(C)CC3)n2)cc1OC` showed an IC50 [1] of 38 nM, an IC50 [2] of 452 nM and an IC50 [3] of 150 nM. For the same compound, the IC50 [4] was 462 nM, the IC50 [5] was 678 nM and the IC50 [6] was 459 nM. It also gave an IC50 [7] of 6540 nM, an IC50 [8] of 777 nM and an IC50 [9] of 778 nM.

Work on `Cc1cc(Nc2cc(N3CCN(C)CC3)nc(Nc3ccc(F)c(Cl)c3)n2)n[nH]1` yielded an IC50 [1] of 7.1 nM, an IC50 [2] of 25.7 nM and an IC50 [3] of 12.2 nM. For the same compound, the IC50 [4] was 95.2 nM, the IC50 [5] was 277 nM and the IC50 [6] was 95.5 nM. The IC50 [7] was 213 nM, the IC50 [8] was 180 nM and the IC50 [9] was 80.9 nM. It also gave an IC50 [10] of 500 nM, an IC50 [11] of 34 nM and an Activity [12] of 88.5%. The Activity [13] was 1.76%, the Activity [14] was 6.76% and the Activity [15] was 3.01%. For the same compound, the Activity [16] was 67.8%, the Activity [17] was 2.11% and the Activity [18] was 6.95%. The Activity [19] was 3.12%, the Activity [20] was 86.3% and the Activity [21] was 2.22%. It also gave an Activity [22] of 7.15%, an Activity [23] of 4.34% and an Activity [24] greater than 90%. The Activity [25] was greater than 90%, the Activity [26] was greater than 90% and the Activity [27] was “Active”. The Activity [28] was “Active”, the Activity [29] was “Active” and the inhibition [30] was “Active”. For the same compound, the Activity [31] was “Active”, the Activity [32] was “Active” and the Activity [33] was 753.6 mm3. For the same compound, the Activity [34] was 528.88 mm3, the Activity [35] was 0.93 g and the Activity [36] was 0.54 g. The Activity [37] was “Non-Toxic” and the Stability [38] was “Stable”.

For `Cc1cc(Nc2cc(N3CCN(C)CC3)nc(Nc3ccc(F)cc3)n2)n[nH]1`, the IC50 [1] was 23 nM, the IC50 [2] was 75.1 nM and the IC50 [3] was 43.2 nM. The IC50 [4] was 357 nM, the IC50 [5] was 680 nM and the IC50 [6] was 255 nM. The IC50 [7] was 873 nM, the IC50 [8] was 653 nM and the IC50 [9] was 340 nM.

`Cc1cc(Nc2cc(N3CCN(C)CC3)nc(Nc3ccc(F)c(F)c3)n2)n[nH]1` showed an IC50 [1] of 17 nM, an IC50 [2] of 89.2 nM and an IC50 [3] of 29.9 nM. The IC50 [4] was 195 nM, the IC50 [5] was 438 nM and the IC50 [6] was 160 nM. It also gave an IC50 [7] of 1290 nM, an IC50 [8] of 339 nM and an IC50 [9] of 177 nM.

`Cc1cc(Nc2cc(N3CCN(C)CC3)nc(Nc3cccc(F)c3)n2)n[nH]1` gave an IC50 [1] of 25 nM, an IC50 [2] of 102 nM and an IC50 [3] of 33.1 nM. For the same compound, the IC50 [4] was 184 nM, the IC50 [5] was 486 nM and the IC50 [6] was 166 nM. For the same compound, the IC50 [7] was 1260 nM, the IC50 [8] was 317 nM and the IC50 [9] was 201 nM.

Reference: ChEMBL document CHEMBL4145494, “Synthesis and biological evaluation of aurora kinases inhibitors based on N-trisubstituted pyrimidine scaffold” (Eur J Med Chem, 2018)
